# Laboratory results taken from ChEMBL document CHEMBL5576042, “Fungal Depsidones Stimulate AKT-Dependent Glucose Uptake in 3T3-L1 Adipocytes” (J Nat Prod, 2024).
# Activity calls are given as the source filed them. No cut-off for these calls is given here.
# Key:
# [1] = test system: 3T3-L1; assay: Induction of glucose uptake in mouse 3T3-L1 cells assessed as increase in glucose uptake at 2.3 uM incubated for 16 hrs in presence of 2-[3H]-deoxyglucose by microbeta analysis; type: functional
# [2] = target: T1, Solute carrier family 2, facilitated glucose transporter member 4 (Mus musculus) (UniProt P14142); assay: Induction of GLUT4 translocation in mouse 3T3-L1 cells membrane by Western blot analysis; type: cell membranes
# T1 sequence (whole entry): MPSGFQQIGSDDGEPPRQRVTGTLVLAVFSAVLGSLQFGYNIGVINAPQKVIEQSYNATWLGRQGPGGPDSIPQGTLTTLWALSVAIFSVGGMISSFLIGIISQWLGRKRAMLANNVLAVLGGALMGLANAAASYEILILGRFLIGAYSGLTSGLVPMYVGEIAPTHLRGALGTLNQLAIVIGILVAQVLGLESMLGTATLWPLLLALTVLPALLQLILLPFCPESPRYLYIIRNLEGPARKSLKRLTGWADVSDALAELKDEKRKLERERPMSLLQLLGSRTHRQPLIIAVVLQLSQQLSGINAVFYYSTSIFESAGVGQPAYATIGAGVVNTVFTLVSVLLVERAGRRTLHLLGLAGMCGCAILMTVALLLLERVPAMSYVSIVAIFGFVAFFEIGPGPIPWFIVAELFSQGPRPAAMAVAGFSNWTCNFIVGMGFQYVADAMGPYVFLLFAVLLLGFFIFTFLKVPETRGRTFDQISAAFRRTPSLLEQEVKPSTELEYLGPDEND
# [3] = test system: 3T3-L1; assay: Cytotoxicity against mouse 3T3-L1 cells assessed as reduction in cell viability at 45 to 68 uM incubated for 18 hrs; type: toxicity, cell-based; settings: 3t3-l1, 18 h, dose 45-68 µM
# [4] = test system: 3T3-L1; assay: Induction of glucose uptake in mouse 3T3-L1 cells assessed as increase in glucose uptake incubated for 16 hrs in presence 2-[3H]-deoxyglucose by microbeta analysis; type: functional, cell-based; settings: dose 2.8-11 µM
# [5] = test system: 3T3-L1; assay: Induction of glucose uptake in mouse 3T3-L1 cells assessed as increase in glucose uptake at 11.27 uM in presence 2-[3H]-deoxyglucose by microbeta analysis; type: functional, cell-based; settings: time 3-16 hrs, TDE = time-dependent effect
# [6] = test system: 3T3-L1; assay: Induction of glucose uptake in insulin-stimulated mouse 3T3-L1 cells assessed as increase in glucose uptake at 11 uM incubated for 16 hrs presence 2-[3H]-deoxyglucose by microbeta analysis; type: functional
# [7] = test system: 3T3-L1; assay: Induction of glucose uptake in metformin-stimulated mouse 3T3-L1 cells assessed as increase in glucose uptake at 11 uM incubated for 16 hrs presence 2-[3H]-deoxyglucose by microbeta analysis; type: functional
# [8] = test system: 3T3-L1; assay: Induction of glucose uptake in insulin-stimulated mouse 3T3-L1 cells assessed as increase in glucose uptake at 100 nM incubated for 16 hrs presence 2-[3H]-deoxyglucose by microbeta analysis; type: functional, cell-based
# [9] = test system: 3T3-L1; assay: Effect on GLUT4 mRNA expression in mouse 3T3-L1 cells at 11 uM incubated for 6 hrs by real time qPCR analysis; type: functional, cell-based
# [10] = Effect on ACTbeta mRNA expression in mouse 3T3-L1 cells assessed as fold change at 11 uM incubated for 6 hrs by real time qPCR analysis; type: functional
# [11] = Effect on NONO mRNA expression in mouse 3T3-L1 cells assessed as fold change at 11 uM incubated for 6 hrs by real time qPCR analysis; type: functional
# [12] = Effect on GLUT4 protein level in mouse 3T3-L1 cells assessed as fold change at 11 uM incubated for 16 hrs; type: functional
# [13] = test system: 3T3-L1; assay: Induction of AKT phosphorylation at ser473 residue in mouse 3T3-L1 cells measured up to 6 hrs by Western blot analysis; type: cell-based; settings: filed as activator
# [14] = test system: 3T3-L1; assay: Induction of AKT phosphorylation at ser473 residue in mouse 3T3-L1 cells assessed as fold change at 11 uM measured at 1 hr by Western blot analysis; type: cell-based; settings: filed as activator
# [15] = test system: 3T3-L1; assay: Induction of AKT phosphorylation at ser473 residue in mouse 3T3-L1 cells assessed as fold change at 11 uM measured at 6 hrs by Western blot analysis; type: cell-based; settings: filed as activator
# [16] = Upregulation of AMPK expression in mouse 3T3-L1 cells assessed as fold change at 11 uM measured at 1 hr by Western blot analysis; type: functional
# [17] = Upregulation of AMPK expression in mouse 3T3-L1 cells assessed as fold change at 11 uM measured at 6 hrs by Western blot analysis; type: functional
# [18] = test system: 3T3-L1; assay: Induction of glucose uptake in mouse 3T3-L1 cells assessed as increase in glucose uptake at 11 uM incubated for 16 hrs in presence of wortmannin; type: functional, cell-based
# [19] = test system: 3T3-L1; assay: Induction of glucose uptake in mouse 3T3-L1 cells assessed as increase in glucose uptake at 11 uM incubated for 16 hrs in presence of 0.1 uM wortmannin; type: functional, cell-based
# [20] = test system: 3T3-L1; assay: Induction of glucose uptake in mouse 3T3-L1 cells assessed as increase in glucose uptake at 11 uM incubated for 16 hrs in presence of 0.1 uM dorsomorphin; type: functional, cell-based
# [21] = test system: 3T3-L1; assay: Induction of glucose uptake in mouse 3T3-L1 cells assessed as increase in glucose uptake by measuring fold change at 11 uM incubated for 6 hrs in presence of 0.1 uM wortmannin; type: functional
# [22] = test system: 3T3-L1; assay: Induction of glucose uptake in mouse 3T3-L1 cells assessed as increase in glucose uptake by measuring fold change at 11 uM incubated for 6 hrs in presence of 0.25 uM wortmannin; type: functional
# [23] = test system: 3T3-L1; assay: Induction of glucose uptake in mouse 3T3-L1 cells assessed as increase in glucose uptake by measuring fold change at 11 uM incubated for 6 hrs in presence of 0.5 uM wortmannin; type: functional
# [24] = test system: 3T3-L1; assay: Induction of glucose uptake in mouse 3T3-L1 cells assessed as increase in glucose uptake at 11 uM incubated for 6 hrs in presence of 0.5 uM wortmannin; type: functional
# [25] = target: T1, Solute carrier family 2, facilitated glucose transporter member 4 (Mus musculus); assay: Induction of GLUT4 translocation in mouse 3T3-L1 cells membrane assessed as fold increase in Na+/K+ ATPase level by Western blot analysis; type: cell membranes
# [26] = target: T2, Solute carrier family 2, facilitated glucose transporter member 1 (Mus musculus) (UniProt P17809); assay: Induction of GLUT1 translocation in mouse 3T3-L1 cells membrane assessed as fold increase in Na+/K+ ATPase level by Western blot analysis; type: cell membranes
# T2 sequence (whole entry): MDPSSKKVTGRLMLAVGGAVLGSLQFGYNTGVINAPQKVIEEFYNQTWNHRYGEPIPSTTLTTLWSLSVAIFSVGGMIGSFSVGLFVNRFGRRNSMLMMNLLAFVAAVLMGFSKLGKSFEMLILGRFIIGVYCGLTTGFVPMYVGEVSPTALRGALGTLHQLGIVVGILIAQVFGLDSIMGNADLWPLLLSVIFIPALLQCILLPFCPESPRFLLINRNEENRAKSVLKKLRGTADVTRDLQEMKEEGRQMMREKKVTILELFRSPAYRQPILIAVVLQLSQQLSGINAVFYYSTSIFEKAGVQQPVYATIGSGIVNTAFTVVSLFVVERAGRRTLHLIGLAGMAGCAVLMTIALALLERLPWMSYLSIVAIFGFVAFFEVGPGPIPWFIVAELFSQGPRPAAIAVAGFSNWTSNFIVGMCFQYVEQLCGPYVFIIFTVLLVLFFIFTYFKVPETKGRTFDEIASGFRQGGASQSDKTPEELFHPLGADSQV
# [27] = target: T1, Solute carrier family 2, facilitated glucose transporter member 4 (Mus musculus); assay: Induction of GLUT4 translocation in mouse 3T3-L1 cells Cytosol by Western blot analysis; type: subcellular
# [28] = target: T2, Solute carrier family 2, facilitated glucose transporter member 1 (Mus musculus); assay: Induction of GLUT1 translocation in mouse 3T3-L1 cells Cytosol by Western blot analysis; type: subcellular
# [29] = test system: 3T3-L1; assay: Induction of glucose uptake in insulin resistant-mouse 3T3-L1 cells assessed as fold increase in glucose uptake at 11 uM incubated for 16 hrs in presence of 2-[3H]-deoxyglucose; type: functional
# [30] = test system: 3T3-L1; assay: Induction of glucose uptake in insulin resistant-mouse 3T3-L1 cells assessed as fold increase in glucose uptake at 11 uM incubated for 16 hrs in presence of 2-[3H]-deoxyglucose and insulin; type: functional
# [31] = test system: 3T3-L1; assay: Induction of AKT phosphorylation at ser473 residue in insulin-resistant mouse 3T3-L1 cells in presence of insulin; type: cell-based; settings: filed as activator
# [32] = test system: 3T3-L1; assay: Induction of AKT phosphorylation at ser473 residue in insulin-resistant mouse 3T3-L1 cells assessed as fold change in presence of insulin; type: cell-based; settings: filed as activator
# [33] = test system: 3T3-L1; assay: Induction of glucose uptake in mouse 3T3-L1 cells assessed as increase in glucose uptake at 3.1 uM incubated for 16 hrs in presence of 2-[3H]-deoxyglucose by microbeta analysis; type: functional
compound,measurement,setting,value
C/C=C(\C)c1c(Cl)c(O)c(C)c2c1Oc1c(Cl)c(O)c(Cl)c(C)c1C(=O)O2,Activity,[1],121%
C/C=C(\C)c1c(Cl)c(OC)c(C)c2c1Oc1c(Cl)c(O)c(Cl)c(C)c1C(=O)O2,Activity,[2],Active
same,Activity,[1],141%
same,Activity,[3],Non-Toxic
same,Activity,[4],Dose-Dependent Effect
same,Activity,[5],Tde
same,Activity,[6],276%
same,Activity,[7],252%
same,Activity,[8],Active
same,Activity,[9],Active
same,fold change (FC),[10],1.92
same,fold change (FC),[11],2.07
same,fold change (FC),[12],1.67
same,Activity,[13],Active
same,fold change (FC),[14],2.4
same,fold change (FC),[15],19
same,fold change (FC),[16],3.7
same,fold change (FC),[17],3.8
same,Activity,[18],inactive
same,Activity,[19],inactive
same,Activity,[20],inactive
same,fold change (FC),[21],1.5
same,fold change (FC),[22],1.4
same,fold change (FC),[23],1.2
same,Activity,[24],20%
same,fold change (FC),[25],1.7
same,fold change (FC),[26],1.6
same,Activity,[27],Active
same,Activity,[28],Active
same,fold change (FC),[29],2.4
same,fold change (FC),[30],2.7
same,Activity,[31],Active
same,fold change (FC),[32],2.1
C/C=C(\C)c1cc(O)c(C)c2c1Oc1cc(O)cc(C)c1C(=O)O2,Activity,[33],124%
